Source: patent US20140350273A1, “PEDIATRIC USES OF CABAZITAXEL” (AVENTIS PHARMA S.A., priority 2012, published 2014)
Where two headings read alike, the source gives them in different places.

Tested on: human Ewing's sarcoma DM101
Assay type: in vivo
Conditions: for MTTE / T-C: volume endpoint 2000 mm^3; for tumor volume changes from baseline, Median +/− MAD: nude mice bearing DM101 Ewing's sarcoma; for Tumor Volume Data (Day 11) Median / ΔT/ΔC %: day 11
Experimental: The resultant solution contains 10 mg/mL of cabazitaxel. Stock solution of cabazitaxel was then diluted in 0.9% sodium chloride.
This efficacy may be quantified, for example, as changes in tumor volume for each treated (T) and control (C) group, which are calculated for each animal and each day by subtracting the tumor volume on the day of first treatment (staging day) from the tumor volume on the specified observation day. This allows calculating the tumor growth inhibition: ΔT/ΔC=(median delta T/median delta C)×100. Individual tumor volume changes from baseline are thereafter analyzed by a non-parametric two-way ANOVA-TYPE (with factors: group and repeated days) followed by a post-hoc contrasts analysis, with Bonferroni-Holm adjustment for multiplicity, comparing all treated groups to the control group. […] A probability less than 5% (p<0.05) was considered as significant.
Based on the National Cancer Institute (NCl) standards, a ΔT/ΔC≦40% is the minimal level required to declare activity.
This efficacy may also be quantified by the number of tumor regressions observed after therapy. Individual mice reporting a tumor volume ≦50% of the Day 0 measurement for two consecutive measurements over a seven day period were considered partial responders (PR). Individual mice lacking palpable tumors (<4×4 mm^2 for two consecutive measurements over a seven day period) were classified as complete responders (CR); a CR that persisted until study completion was considered a tumor-free survivor (TFS).
Efficacy could also be determined at study completion, using tumor growth delay (T-C) in days, which is calculated using the median time to endpoint (MTTE) value for each treatment (T) group versus control (C). A Log Rank multiple comparison test with Bonferroni-Holm adjustment for multiplicity was applied on individual TTE to compare the treated groups to the control group.
The animals subjected to the experiment are subcutaneously grafted unilaterally with approximately 30 mg of a tumor fragment from low passage pediatric patient-derived tumor xenografts. The animals are implanted with a human patient-derived pediatric tumor xenografted in immuno-compromised mice (Harlan; nu/nu). Several days post tumor implantation, mice are randomized according to their tumor burden to the different groups of treatments and controls. The agents are dosed intravenously at 5.8, 9.3, 15 or 24.2 mg/kg every 4 days for a total of 3 doses (q4d×3) to mice bearing a tumor burden at start of therapy (day 0) ranged from 125 to 250 mm^3.
Beginning Day 0, animals were observed daily and weighed twice weekly using a digital scale; data including individual and mean gram weights (Mean We±SD), mean percent weight change versus Day 0 were recorded for each group. Animal deaths were recorded daily and designated as drug-related (D), technical (T), tumor related (B), or unknown (U) based on weight loss and gross observation; single agent or combination groups reporting a mean >20% for a period of 7 days and/or >10% mortality were considered above the maximum tolerated dose (MTD) for that treatment on the evaluated regimen.
The selected tumor model, DM101, was a low passage patient-derived tumor xenograft derived from an Ewing's sarcoma taken from the bone of a patient.
The following end points were used: • Toxicity was declared at dosages inducing ≧20% body weight loss or ≧10% drug death; • Antitumor efficacy was determined by calculating the ΔT/ΔC value in percent on day 11 post treatment initiation, according to the above mentioned formula; • Individual tumor volume changes from baseline were analyzed by a non-parametric two-way ANOVA-TYPE (with factors: group and repeated day from 4 to 14) followed by a post-hoc contrasts analysis, with Bonferroni-Holm adjustment for multiplicity, comparing all treated groups to the control group on day 11. […] The volume endpoint for T-C calculations was chosen to be 2000 mm^3.

CC(=O)O[C@@]12CO[C@@H]1C[C@H](O)[C@@]1(C)C(=O)[C@H](O)C3=C(C)[C@@H](OC(=O)[C@H](O)[C@@H](NC(=O)OC(C)(C)C)c4ccccc4)C[C@@](O)([C@@H](OC(=O)c4ccccc4)[C@H]21)C3(C)C [Docetaxel, docetaxel]
#CR (5.8 mg/kg i.v./q4d × 3): 0/0/0 | #PR (5.8 mg/kg i.v./q4d × 3): 0/0/0 | #TFS (5.8 mg/kg i.v./q4d × 3): 0/0/0 | Drug Deaths Total (5.8 mg/kg i.v./q4d × 3): 0 | Weight Nadir % (5.8 mg/kg i.v./q4d × 3): −1% | Weight Nadir Day (5.8 mg/kg i.v./q4d × 3): 4 | Tumor Volume Data (Day 11) Median (5.8 mg/kg i.v./q4d × 3): 366 mm^3 | MTTE (5.8 mg/kg i.v./q4d × 3): 35 days | T-C (5.8 mg/kg i.v./q4d × 3): 18.1 days | tumor volume changes from baseline, Median +/− MAD (5.8 mg/kg, DAY 4): 51 +/− 38 | tumor volume changes from baseline, Median +/− MAD (5.8 mg/kg, DAY 7): 98 +/− 79 | tumor volume changes from baseline, Median +/− MAD (5.8 mg/kg, DAY 11): 202 +/− 183 | tumor volume changes from baseline, Median +/− MAD (5.8 mg/kg, DAY 14): 446 +/− 393 | tumor volume changes from baseline, Median +/− MAD (5.8 mg/kg, DAY 17): 640 +/− 621 | tumor volume changes from baseline, Median +/− MAD (5.8 mg/kg, DAY 20): 813 +/− 756 | tumor volume changes from baseline, Median +/− MAD (5.8 mg/kg, DAY 25): 766 +/− 478 | tumor volume changes from baseline, Median +/− MAD (5.8 mg/kg, DAY 28): 1140 +/− 564 | tumor volume changes from baseline, Median +/− MAD (5.8 mg/kg, DAY 32): 1694 +/− 281 | #CR (9.3 mg/kg i.v./q4d × 3): 4 | #PR (9.3 mg/kg i.v./q4d × 3): 4 | #TFS (9.3 mg/kg i.v./q4d × 3): 1 | Drug Deaths Total (9.3 mg/kg i.v./q4d × 3): 0 | Weight Nadir % (9.3 mg/kg i.v./q4d × 3): −4% | Weight Nadir Day (9.3 mg/kg i.v./q4d × 3): 7 | Tumor Volume Data (Day 11) Median (9.3 mg/kg i.v./q4d × 3): 505 mm^3 | ΔT/ΔC % (9.3 mg/kg i.v./q4d × 3): 36.8% | MTTE (9.3 mg/kg i.v./q4d × 3): 30.5 days | T-C (9.3 mg/kg i.v./q4d × 3): 13.6 days | tumor volume changes from baseline, Median +/− MAD (9.3 mg/kg, DAY 4): 25 +/− 25 | tumor volume changes from baseline, Median +/− MAD (9.3 mg/kg, DAY 7): 96 +/− 172 | tumor volume changes from baseline, Median +/− MAD (9.3 mg/kg, DAY 11): 301 +/− 223 | tumor volume changes from baseline, Median +/− MAD (9.3 mg/kg, DAY 14): 472 +/− 550 | tumor volume changes from baseline, Median +/− MAD (9.3 mg/kg, DAY 17): 750 +/− 828 | tumor volume changes from baseline, Median +/− MAD (9.3 mg/kg, DAY 20): 813 +/− 891 | tumor volume changes from baseline, Median +/− MAD (9.3 mg/kg, DAY 25): −78 +/− 110 | tumor volume changes from baseline, Median +/− MAD (9.3 mg/kg, DAY 28): −78 +/− 36 | tumor volume changes from baseline, Median +/− MAD (9.3 mg/kg, DAY 32): −78 +/− 34 | #CR (15 mg/kg i.v./q4d × 3): 4 | #PR (15 mg/kg i.v./q4d × 3): 4 | #TFS (15 mg/kg i.v./q4d × 3): 1 | Drug Deaths Total (15 mg/kg i.v./q4d × 3): 0 | Weight Nadir % (15 mg/kg i.v./q4d × 3): −6% | Weight Nadir Day (15 mg/kg i.v./q4d × 3): 14 | Tumor Volume Data (Day 11) Median (15 mg/kg i.v./q4d × 3): 204 mm^3 | ΔT/ΔC % (15 mg/kg i.v./q4d × 3): 8.9% | MTTE (15 mg/kg i.v./q4d × 3): 50.9 days | T-C (15 mg/kg i.v./q4d × 3): 34 days | CR (15 mg/kg q4d×3 IV): 4/9 | TFS (15 mg/kg q4d×3 IV): 1/9 | tumor volume changes from baseline, Median +/− MAD (15 mg/kg, DAY 4): 26 +/− 25 | tumor volume changes from baseline, Median +/− MAD (15 mg/kg, DAY 7): 73 +/− 109 | tumor volume changes from baseline, Median +/− MAD (15 mg/kg, DAY 11): 73 +/− 186 | tumor volume changes from baseline, Median +/− MAD (15 mg/kg, DAY 14): 73 +/− 251 | tumor volume changes from baseline, Median +/− MAD (15 mg/kg, DAY 17): 169 +/− 347 | tumor volume changes from baseline, Median +/− MAD (15 mg/kg, DAY 20): 290 +/− 468 | tumor volume changes from baseline, Median +/− MAD (15 mg/kg, DAY 25): −78 +/− 100 | tumor volume changes from baseline, Median +/− MAD (15 mg/kg, DAY 28): −84.5 +/− 70 | tumor volume changes from baseline, Median +/− MAD (15 mg/kg, DAY 32): −91 +/− 40 | #CR (24.2 mg/kg i.v./q4d × 3): 3 | #PR (24.2 mg/kg i.v./q4d × 3): 4 | #TFS (24.2 mg/kg i.v./q4d × 3): 2 | Drug Deaths Total (24.2 mg/kg i.v./q4d × 3): 0 | Weight Nadir % (24.2 mg/kg i.v./q4d × 3): −17% | Weight Nadir Day (24.2 mg/kg i.v./q4d × 3): 14 | Tumor Volume Data (Day 11) Median (24.2 mg/kg i.v./q4d × 3): 300 mm^3 | ΔT/ΔC % (24.2 mg/kg i.v./q4d × 3): 14.9% | MTTE (24.2 mg/kg i.v./q4d × 3): 32.3 days | T-C (24.2 mg/kg i.v./q4d × 3): 15.4 days | CR (24.2 mg/kg q4d×3 IV): 3/9 | TFS (24.2 mg/kg q4d×3 IV): 2/9 | tumor volume changes from baseline, Median +/− MAD (24.2 mg/kg, DAY 4): 26 +/− 40 | tumor volume changes from baseline, Median +/− MAD (24.2 mg/kg, DAY 7): 122 | tumor volume changes from baseline, Median +/− MAD (24.2 mg/kg, DAY 11): 122 | tumor volume changes from baseline, Median +/− MAD (24.2 mg/kg, DAY 14): 122 | tumor volume changes from baseline, Median +/− MAD (24.2 mg/kg, DAY 17): 122 | tumor volume changes from baseline, Median +/− MAD (24.2 mg/kg, DAY 20): 394 | tumor volume changes from baseline, Median +/− MAD (24.2 mg/kg, DAY 25): 351.5 | tumor volume changes from baseline, Median +/− MAD (24.2 mg/kg, DAY 28): 681 | tumor volume changes from baseline, Median +/− MAD (24.2 mg/kg, DAY 32): 254
